# How the values were obtained:
# [1] = molecular target: T1, Serine/threonine-protein kinase B-raf (Homo sapiens, UniProt P15056, V600E); test: Inhibition of BRAF V600E mutant-mediated MEK phosphorylation in human HT-29 cells by Western blotting analysis; format: cell-based
# [2] = molecular target: T2, Serine/threonine-protein kinase B-raf (Homo sapiens, UniProt P15056); test: Inhibition of BRAF (unknown origin)
# [3] = molecular target: T2, Serine/threonine-protein kinase B-raf; test: Inhibition of N-terminal 6X-His tagged human wild-type BRAF by ELISA
# [4] = molecular target: T1, Serine/threonine-protein kinase B-raf; test: Inhibition of N-terminal 6X-His tagged human BRAF V600E mutant (433 to 726) by ELISA
# [5] = tested on: A-375; test: Antiproliferative activity against human A375 cells; format: functional, cell-based
# [6] = Antiproliferative activity against human WM266.4 cells; format: functional, cell-based; details: WM 266-4
# [7] = molecular target: T1, Serine/threonine-protein kinase B-raf; test: Inhibition of BRAF V600E mutant (unknown origin)
# [8] = molecular target: T2, Serine/threonine-protein kinase B-raf; test: Inhibition of BRAF (unknown origin)-mediated ERK phosphorylation
# T2 sequence (P15056 whole entry): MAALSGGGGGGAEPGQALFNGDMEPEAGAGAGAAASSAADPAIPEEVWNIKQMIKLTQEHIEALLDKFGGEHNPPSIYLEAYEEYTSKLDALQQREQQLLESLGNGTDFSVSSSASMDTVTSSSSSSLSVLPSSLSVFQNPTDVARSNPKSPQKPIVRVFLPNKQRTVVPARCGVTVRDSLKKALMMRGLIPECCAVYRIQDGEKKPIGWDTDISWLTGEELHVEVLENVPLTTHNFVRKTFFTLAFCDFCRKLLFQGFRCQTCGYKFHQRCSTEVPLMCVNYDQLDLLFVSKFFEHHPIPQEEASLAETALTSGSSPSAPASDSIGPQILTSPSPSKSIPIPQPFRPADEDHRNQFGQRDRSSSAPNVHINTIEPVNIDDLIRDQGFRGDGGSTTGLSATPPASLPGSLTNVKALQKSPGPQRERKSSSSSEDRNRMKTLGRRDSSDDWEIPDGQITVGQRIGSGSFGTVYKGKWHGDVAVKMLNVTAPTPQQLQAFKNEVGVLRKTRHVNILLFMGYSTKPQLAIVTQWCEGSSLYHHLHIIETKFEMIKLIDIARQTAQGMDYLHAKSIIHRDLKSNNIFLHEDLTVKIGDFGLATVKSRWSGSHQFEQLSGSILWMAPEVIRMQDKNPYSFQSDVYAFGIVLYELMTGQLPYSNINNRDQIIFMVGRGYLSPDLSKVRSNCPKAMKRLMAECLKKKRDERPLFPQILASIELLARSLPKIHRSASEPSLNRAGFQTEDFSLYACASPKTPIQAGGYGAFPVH
# T1 sequence (P15056 2-766 V600E limits assumed): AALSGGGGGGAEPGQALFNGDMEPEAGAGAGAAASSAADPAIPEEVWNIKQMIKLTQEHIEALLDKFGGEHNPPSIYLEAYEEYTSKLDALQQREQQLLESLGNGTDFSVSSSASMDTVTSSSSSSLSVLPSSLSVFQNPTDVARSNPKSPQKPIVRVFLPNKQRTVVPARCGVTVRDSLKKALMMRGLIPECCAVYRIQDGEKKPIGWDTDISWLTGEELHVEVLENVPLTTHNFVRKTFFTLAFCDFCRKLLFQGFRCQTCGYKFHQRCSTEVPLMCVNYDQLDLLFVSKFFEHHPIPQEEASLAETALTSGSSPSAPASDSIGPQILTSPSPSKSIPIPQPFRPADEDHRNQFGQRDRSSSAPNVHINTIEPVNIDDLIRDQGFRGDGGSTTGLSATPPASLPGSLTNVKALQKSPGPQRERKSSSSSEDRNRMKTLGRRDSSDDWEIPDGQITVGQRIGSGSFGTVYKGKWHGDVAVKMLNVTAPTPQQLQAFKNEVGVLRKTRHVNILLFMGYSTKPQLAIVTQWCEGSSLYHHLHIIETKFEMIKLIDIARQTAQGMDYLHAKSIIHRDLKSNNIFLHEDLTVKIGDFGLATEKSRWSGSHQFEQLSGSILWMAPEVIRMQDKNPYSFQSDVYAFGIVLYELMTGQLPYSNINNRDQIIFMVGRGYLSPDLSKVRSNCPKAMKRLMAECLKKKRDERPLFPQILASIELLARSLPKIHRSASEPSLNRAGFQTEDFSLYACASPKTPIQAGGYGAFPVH
smiles,measurement,setting,value
O=C(Nc1cccc(Oc2ccc3nc(NC(=O)C4CCOCC4)cn3n2)c1)c1cccc(C(F)(F)F)c1,IC50,[1],3800 nM
same,IC50,[2],43 nM
O=C1NC(=S)NC(=O)C1=Cc1ccc(-c2ccc3c(c2)OCO3)o1,IC50,[3],1150 nM
same,IC50,[4],300 nM
O=C(Nc1ccccc1)N(Cc1ccc(Br)cc1O)c1cc(-c2ccccc2)[nH]n1,IC50,[5],1320 nM
same,IC50,[6],1500 nM
same,IC50,[7],190 nM
O/N=C1\CCc2cc(-c3cn(C4CCNCC4)nc3-c3ccncc3)ccc21,IC50,[8],9 nM

# From ChEMBL document CHEMBL3232715, “Recent progress in the identification of BRAF inhibitors as anti-cancer agents” (Eur J Med Chem, 2014)
